In this experiment the target is T1, wild-type menin / MLL-AF9 fusion protein (Homo sapiens, UniProt O00255).
T1 construct: made in house; host or cells: E. coli (menin); HEK293 cleared lysate (MLL-AF9-FLAG)
T1 sequence (O00255 1-610): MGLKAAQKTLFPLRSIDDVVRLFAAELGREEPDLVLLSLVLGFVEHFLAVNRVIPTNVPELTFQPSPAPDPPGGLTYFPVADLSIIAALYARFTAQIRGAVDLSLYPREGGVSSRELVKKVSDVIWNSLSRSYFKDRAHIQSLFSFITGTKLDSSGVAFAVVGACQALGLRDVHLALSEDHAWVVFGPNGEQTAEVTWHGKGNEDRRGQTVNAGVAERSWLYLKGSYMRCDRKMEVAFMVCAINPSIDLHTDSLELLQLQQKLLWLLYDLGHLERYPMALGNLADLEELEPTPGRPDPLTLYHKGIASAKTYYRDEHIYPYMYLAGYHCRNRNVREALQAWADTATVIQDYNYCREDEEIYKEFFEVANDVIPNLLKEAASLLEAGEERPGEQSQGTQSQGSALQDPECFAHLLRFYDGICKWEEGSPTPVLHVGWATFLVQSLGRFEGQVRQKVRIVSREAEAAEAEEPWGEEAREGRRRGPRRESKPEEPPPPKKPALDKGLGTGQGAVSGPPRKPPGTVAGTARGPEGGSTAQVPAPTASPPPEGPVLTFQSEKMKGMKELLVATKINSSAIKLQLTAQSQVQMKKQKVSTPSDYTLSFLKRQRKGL
In words: AlphaLISA menin/MLL binding assay, wild-type menin (Assay 1). To be noted: biotinylated wild-type menin 5 nM, MLL-AF9-FLAG lysate. The procedure:
Potencies of inhibitor compounds against menin/MLL binding were assessed by AlphaLISA assay using biotinylated (1) wild-type menin or (2) mutated menin (described in Nature (2012) Vol. 482, pp. 542-548) and MLL-AF9 fusion protein bearing a FLAG epitope at its C-terminus. Menin proteins were expressed in E. coli and covalently modified with biotin using EZ-Link™ Sulfo-NHS-Biotin (ThermoFisher Cat. No. 21217) according to manufacturer's protocol. MLL1-1,396 fused to AF91-92 and the C-terminal FLAG peptide was expressed in HEK293 cells and used as a lysate cleared at 21,000×g for 10 min.
Compounds (2 μL of solutions in DMSO) were dispensed in white 96-well half-area plates (Corning Cat. No. 3693) and incubated for 30 min at RT with 5 nM biotinylated menin and appropriate amount of MLL-AF9-FLAG lysate in 40 μL of 50 mM Tris-HCl buffer pH 7.4 containing 5% (v/v) DMSO, 50 mM NaCl, 0.01% (w/v) bovine serum albumin (BSA) and 1 mM DTT. To this incubation mixture, 40 μl of AlphaLISA anti-FLAG acceptor (PerkinElmer Cat. No. AL112C) and streptavidin donor (PerkinElmer Cat. No. 6760002) beads (10 μg/mL each) was added and incubation continued at RT for 60 min. Alpha (amplified luminescent proximity homogeneous assay) signal was measured on an Envision multi-label plate reader at the end of the incubation. All steps were conducted under dim fluorescent light.
These percent inhibition values were regressed against compound concentrations in the assay using four parameter logit non-linear curve fitting (XLFit, IDBS). The IC50 values were derived from the curve fitting as inflection points on the dose-response curves and are set out in Table 1 below.
On the technique in general: Alpha assays give light when donor and acceptor beads are brought close together.

As a reminder, the IC50 is the concentration that inhibits the measured activity by half. A high value points to weaker potency in that assay.

On to `CC(=O)N[C@H]1CC[C@@H](CN2CCC3(CCN(c4ncnc5sc(CC(F)(F)F)cc45)C3)C2)CC1` (stereo partly drawn) [Example 50, N-((1s,4s)-4-((7-(6-(2,2,2-Trifluoroethyl)thieno[2,3-d]pyrimidin-4-yl)-2,7-diazaspiro[4.4]nonan-2-yl)methyl)cyclohexyl)acetamide], for which the IC50 was in the range of 100 to 1000 nM. In the case of `COC(=O)N[C@H]1CC[C@@H](CN2CCC3(CCN(c4ncnc5sc(CC(F)(F)F)cc45)C3)C2)CC1` (stereo partly drawn) [Example 51, Methyl ((1s,4s)-4-((7-(6-(2,2,2-trifluoroethyl)thieno[2,3-d]pyrimidin-4-yl)-2,7-diazaspiro[4.4]nonan-2-yl)methyl)cyclohexyl)carbamate] it was 100 to 1000 nM; in that of `COC(=O)Nc1cccc(CN2CCC3(CCN(c4ncnc5sc(CC(F)(F)F)cc45)C3)C2)c1` (stereo not drawn) [Example 53, methyl (3-((7-(6-(2,2,2-trifluoroethyl)thieno[2,3-d]pyrimidin-4-yl)-2,7-diazaspiro[4.4]nonan-2-yl)methyl)phenyl)carbamate], less than 100 nM. Consider `O=C(C1CCCNC1)N1CCC2(CCN(c3ncnc4sc(CC(F)(F)F)cc34)C2)C1` (stereo not drawn) [Example 55, piperidin-3-yl(7-(6-(2,2,2-trifluoroethyl)thieno[2,3-d]pyrimidin-4-yl)-2,7-diazaspiro[4.4]nonan-2-yl)methanone], for which the half-inhibitory concentration (IC50) lay in the range of 100 to 1000 nM. Regarding `O=C(C1CCCCN1)N1CCC2(CCN(c3ncnc4sc(CC(F)(F)F)cc34)C2)C1` (stereo not drawn) [Example 56, piperidin-2-yl(7-(6-(2,2,2-trifluoroethyl)thieno[2,3-d]pyrimidin-4-yl)-2,7-diazaspiro[4.4]nonan-2-yl)methanone], the IC50 was 100 to 1000 nM. As to `O=C([C@@H]1CCCN1)N1CCC2(CCN(c3ncnc4sc(CC(F)(F)F)cc34)C2)C1` (stereo partly drawn) [Example 57, 4-(7-prolyl-2,7-diazaspiro[4.4]nonan-2-yl)-6-(2,2,2-trifluoroethyl)thieno[2,3-d]pyrimidine], the IC50 lay in the range of 100 to 1000 nM. The molecule `O=C1N(Cc2ccccc2)CCC12CCN(c1ncnc3sc(CC(F)(F)F)cc13)C2` (stereo not drawn) [Example 59, 2-benzyl-7-(6-(2,2,2-trifluoroethyl)thieno[2,3-d]pyrimidin-4-yl)-2,7-diazaspiro[4.4]nonan-1-one] registered an IC50 not below 1000 nM.

`CS(=O)(=O)c1ccc(CC(=O)N2CC3(C2)CN(c2ncnc4sc(CC(F)(F)F)cc24)C3)cc1` [Example 62, 2-(4-(methylsulfonyl)phenyl)-1-(6-(6-(2,2,2-trifluoroethyl)thieno[2,3-d]pyrimidin-4-yl)-2,6-diazaspiro[3.3]heptan-2-yl)ethan-1-one]: the IC50 was 100 to 1000 nM. As for `CC1(C)CCC(CN2CC3(C2)CN(c2ncnc4sc(CC(F)(F)F)cc24)C3)CC1` [Example 64, 4-(6-((4,4-dimethylcyclohexyl)methyl)-2,6-diazaspiro[3.3]heptan-2-yl)-6-(2,2,2-trifluoroethyl)thieno[2,3-d]pyrimidine], the half-inhibitory concentration (IC50) was in the range of 100 to 1000 nM. In the case of `Cc1c(CN2CC3(C2)CN(c2ncnc4sc(CC(F)(F)F)cc24)C3)ccc2[nH]c(C#N)cc12` [Example 67, 4-methyl-5-((6-(6-(2,2,2-trifluoroethyl)thieno[2,3-d]pyrimidin-4-yl)-2,6-diazaspiro[3.3]heptan-2-yl)methyl)-1H-indole-2-carbonitrile] it was 100 to 1000 nM. As to `FC(F)(F)Cc1cc2c(N3CC4(CN(CC5CCC(F)(F)CC5)C4)C3)ncnc2s1` [Example 70, 4-(6-((4,4-difluorocyclohexyl)methyl)-2,6-diazaspiro[3.3]heptan-2-yl)-6-(2,2,2-trifluoroethyl)thieno[2,3-d]pyrimidine], the concentration for half-maximal inhibition (IC50) is 100 to 1000 nM. The same measure for `CCS(=O)(=O)N[C@H]1CC[C@H](CN2CC3(C2)CN(c2ncnc4sc(CC(F)(F)F)cc24)C3)CC1` [Example 71, N-((1r,4r)-4-((6-(6-(2,2,2-trifluoroethyl)thieno[2,3-d]pyrimidin-4-yl)-2,6-diazaspiro[3.3]heptan-2-yl)methyl)cyclohexyl)ethanesulfonamide]: 100 to 1000 nM.
